The text below walks through data of ChEMBL document CHEMBL3228040 (J Med Chem, 1979).

One experiment addresses Opioid receptor (Rattus norvegicus, UniProt P33533+P34975+P33535). The experiment is described as follows: Displacement of radiolabeled dihydromorphine from opioid receptor in rat brain homogenates. In kind it is tissue-based.
The subject of experiment [1] is Mus musculus. The experiment is described as follows: Analgesic activity in sc dosed mouse by hot plate assay. In kind it is functional. For orientation: Thermal pain tests record how soon the animal reacts.
Experiment [2] concerns Rhesus monkey. The experiment is described as follows: Effect on physical dependence capacity in morphine-dependent rhesus monkey at 20 mg/kg by single-dose suppression test. The settings on record: Macaca mulatta. Also on record: dose 20 mg/kg. In kind it is functional, organism-based.
For experiment [3], the species on record is Mus musculus. The experiment is described as follows: Analgesic activity in mouse by Nilsen assay. It counts as functional.
The test system of experiment [4] is Rhesus monkey. The experiment is described as follows: Effect on physical dependence capacity in morphine-dependent rhesus monkey assessed as partial suppression of abstinence signs at 20 to 40 mg/kg by single-dose suppression test. It counts as functional, organism-based. The settings on record: Macaca mulatta.
The species named for experiment [5] is Mus musculus. The experiment is described as follows: (§1) Analgesic activity in mouse by tail flick assay. It counts as functional.
The species named for experiment [6] is Mus musculus. The experiment is described as follows: Analgesic activity in mouse assessed as inhibition of PPQ-induced writhing. In kind it is functional.
Experiment [7] has as its system Rhesus monkey. The experiment is described as follows: Effect on physical dependence capacity in morphine-dependent rhesus monkey at 1.2 mg/kg by single-dose suppression test. The following applies: Macaca mulatta. The arrangement: dose 1.2 mg/kg. It counts as functional, organism-based.
For experiment [8], the species on record is Mus musculus. Described as §1. It counts as functional, organism-based.
Experiment [9] relates to Rhesus monkey. The experiment is described as follows: Effect on physical dependence capacity in morphine-dependent rhesus monkey up to 16 mg/kg by single-dose suppression test. It counts as functional, organism-based. Also on record: dose 16 mg/kg. The settings on record: Macaca mulatta.

Active and inactive are the calls of the source. The calls are words filed in the database; no cut-off is given here. Some results are limits rather than exact numbers.

As usually defined, the EC50 is the concentration that produces a half-maximal response. Broadly, the ED50 is the dose that gives a 50% effect, or the effect in half of the subjects. At Opioid receptor, `CCOC(=O)C1(c2ccccc2)CCN(CCC#N)CC1` registered an EC50 of 8000 nM. The same compound showed a 50% effective dose (ED50) with Mus musculus [1] of 100 mg/kg. For the same compound, in the experiment with Rhesus monkey [2], the outcome was inactive.

In the experiment listed under Mus musculus [3], `CCC(=O)C1(c2cccc(O)c2)CCN(CCC#N)CC1` showed a median effective dose (ED50) of more than 50 mg/kg. The compound further yielded an EC50 on Opioid receptor of 1500 nM. In addition, the result with Rhesus monkey [4] was Active.

Compound `CC[C@H]1C2Cc3ccc(O)cc3[C@@]1(C)CCN2C` (mixture of isomers) displayed an EC50 at Opioid receptor of 15 nM. Further, the ED50 in the experiment with Mus musculus [1] was determined as 1.3 mg/kg; in the experiment filed under Mus musculus [5], 6.4 mg/kg; in the experiment filed under Mus musculus [6], 0.2 mg/kg. Moreover, the outcome in the experiment on Rhesus monkey [7] was Active.

Take `CC[C@H]1C2Cc3ccc(O)cc3[C@@]1(C)CCN2CCC#N` (mixture of isomers): the EC50 on Opioid receptor is given as 4 nM. Further, the figures for the 50% effective dose (ED50) with Mus musculus [1], in the experiment listed under Mus musculus [5] and in the experiment listed under Mus musculus [6] were 0.21 mg/kg, 0.8 mg/kg and 0.09 mg/kg, respectively. Moreover, the inhibition entry in the experiment listed under Mus musculus [8] is “inactive”. The result in the experiment with Rhesus monkey [7] was Active.

With `CC[C@H]1C2Cc3ccc(O)cc3[C@@]1(C)CCN2CCC(N)=O` (mixture of isomers), the half-maximal effective concentration (EC50) at Opioid receptor is given as 9 nM. In addition, the 50% effect level with Mus musculus [1] (ED50) was put at a dose of 19.3 mg/kg. In addition, the outcome in the experiment listed under Mus musculus [5] and in the experiment on Rhesus monkey [9] was inactive. Also, the inhibition entry in the experiment filed under Mus musculus [6] and in the experiment filed under Mus musculus [8] was “inactive” throughout.

As for `CC1C2Cc3ccc(O)cc3C1(C)CCN2C` (racemic), the 50% effective concentration (EC50) on Opioid receptor was found to be 9 nM. The ED50 with Mus musculus [1] amounted to 1.18 mg/kg.

`CCC(=O)C1(c2cccc(O)c2)CCN(C)CC1` [KETOBEMIDONE] registered an EC50 at Opioid receptor of 2 nM. The compound also registered a 50% effective dose (ED50) in the experiment with Mus musculus [1] of 0.8 mg/kg.

On to `CCOC(=O)C1(c2ccccc2)CCN(C)CC1` [MEPERIDINE], for which the ED50 with Mus musculus [1] turned out to be 4.7 mg/kg.

The compound `CN1CC[C@]23c4c5ccc(O)c4O[C@H]2[C@@H](O)C=C[C@H]3[C@H]1C5` [MORPHINE] registered a 50% effective dose (ED50) in the experiment with Mus musculus [1] of 1.2 mg/kg.
